Measured values taken from patent US9458137B2, “Substituted indol-5-ol derivatives and their therapeutical applications” (NantBioScience, Inc., priority 2012, dated 2016).

Key:
Experiment in all cases: Kinase panel activity
Type in all cases: biochemical
Conditions in all cases: 0.1 μM, ATP Km
Tie2(Y897S)(h) = molecular target: T1, Tie2(Y897S)(h) (Homo sapiens, UniProt Q02763, Y897S)
T1 construct: purchased Millipore (KinaseProfiler service)
Procedure: (§1) The effect of NTW-3475 on kinase activity was tested for a wide range of kinases and is shown in Table 2: Summary Sheet, Activity % ATP Concentration: Km

TAK1(h) = molecular target: T2, TAK1(h) (Homo sapiens, UniProt O43318)
T2 construct: purchased Millipore (KinaseProfiler service)
Procedure: as §1

MRCKα(h) = molecular target: T3, MRCKα(h) (Homo sapiens, UniProt Q5VT25)
T3 construct: purchased Millipore (KinaseProfiler service)
Procedure: as §1

KDR(h) = KDR(h) (Homo sapiens, UniProt P35968)
Chain of KDR(h) (P35968 20-1356): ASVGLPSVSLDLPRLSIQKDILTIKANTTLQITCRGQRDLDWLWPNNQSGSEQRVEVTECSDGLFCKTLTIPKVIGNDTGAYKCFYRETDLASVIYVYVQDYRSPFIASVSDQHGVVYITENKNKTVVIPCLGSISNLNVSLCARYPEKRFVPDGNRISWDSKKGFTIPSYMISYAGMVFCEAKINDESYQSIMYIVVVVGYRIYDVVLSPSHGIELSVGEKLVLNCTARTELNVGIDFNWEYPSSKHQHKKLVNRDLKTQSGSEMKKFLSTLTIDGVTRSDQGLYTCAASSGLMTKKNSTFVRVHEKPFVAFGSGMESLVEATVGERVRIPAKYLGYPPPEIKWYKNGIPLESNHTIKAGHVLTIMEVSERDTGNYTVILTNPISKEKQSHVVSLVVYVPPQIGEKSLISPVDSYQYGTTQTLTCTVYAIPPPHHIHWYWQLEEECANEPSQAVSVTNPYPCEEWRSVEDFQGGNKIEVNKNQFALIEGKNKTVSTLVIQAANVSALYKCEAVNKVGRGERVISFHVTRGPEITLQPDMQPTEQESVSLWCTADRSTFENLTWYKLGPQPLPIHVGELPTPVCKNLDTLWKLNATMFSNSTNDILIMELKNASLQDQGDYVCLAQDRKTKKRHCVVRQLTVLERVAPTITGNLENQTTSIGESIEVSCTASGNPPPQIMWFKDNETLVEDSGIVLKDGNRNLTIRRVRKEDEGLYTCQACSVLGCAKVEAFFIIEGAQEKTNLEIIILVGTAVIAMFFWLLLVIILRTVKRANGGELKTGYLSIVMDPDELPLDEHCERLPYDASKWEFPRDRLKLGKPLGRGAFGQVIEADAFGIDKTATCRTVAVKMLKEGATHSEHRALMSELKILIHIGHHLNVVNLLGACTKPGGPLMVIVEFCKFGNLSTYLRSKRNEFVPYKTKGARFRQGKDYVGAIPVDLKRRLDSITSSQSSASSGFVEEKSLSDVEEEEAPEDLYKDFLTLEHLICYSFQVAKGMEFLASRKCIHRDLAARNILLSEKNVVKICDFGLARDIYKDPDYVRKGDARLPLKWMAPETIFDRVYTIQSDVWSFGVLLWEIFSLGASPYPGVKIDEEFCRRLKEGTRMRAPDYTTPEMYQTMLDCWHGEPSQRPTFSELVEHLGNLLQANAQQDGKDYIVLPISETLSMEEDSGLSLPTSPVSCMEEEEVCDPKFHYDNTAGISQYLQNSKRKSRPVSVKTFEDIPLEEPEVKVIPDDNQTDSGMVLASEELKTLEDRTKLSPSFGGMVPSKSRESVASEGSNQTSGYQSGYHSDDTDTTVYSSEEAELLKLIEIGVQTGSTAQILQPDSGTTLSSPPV
Procedure: as §1

SAPK2a(T106M)(h) = molecular target: T4, SAPK2a(T106M)(h) (Homo sapiens, UniProt Q16539, T106M)
T4 construct: purchased Millipore (KinaseProfiler service)
Procedure: as §1

Hck(h) activated = Hck(h) activated (Homo sapiens, UniProt P08631)
Procedure: as §1

Syk(h) = molecular target: T5, Syk(h) (Homo sapiens, UniProt P43405)
T5 construct: purchased Millipore (KinaseProfiler service)
Procedure: as §1

IKKβ(h) = IKKβ(h) (Homo sapiens, UniProt O14920)
Procedure: as §1

AMPKα2(h) = AMPKα2(h) (Homo sapiens, UniProt P54646)
Procedure: as §1

NEK6(h) = NEK6(h) (Homo sapiens, UniProt Q9HC98)
Procedure: as §1

TGFBR1(h) = molecular target: T6, TGFBR1(h) (Homo sapiens, UniProt P36897)
T6 construct: purchased Millipore (KinaseProfiler service)
Procedure: as §1

HIPK3(h) = HIPK3(h) (Homo sapiens, UniProt Q9H422)
Procedure: as §1

Ret(V804L)(h) = molecular target: T7, Ret(V804L)(h) (Homo sapiens, UniProt P07949, V804L)
T7 construct: purchased Millipore (KinaseProfiler service)
Procedure: as §1

PKCβ1(h) = PKCβ1(h) (Homo sapiens, UniProt P05771)
Procedure: as §1

IGF-1R(h) = IGF-1R(h) (Homo sapiens, UniProt P08069)
Procedure: as §1

B1k(m) = B1k(m) (Mus musculus, UniProt P16277)
Chain of B1k(m) (P16277 whole entry): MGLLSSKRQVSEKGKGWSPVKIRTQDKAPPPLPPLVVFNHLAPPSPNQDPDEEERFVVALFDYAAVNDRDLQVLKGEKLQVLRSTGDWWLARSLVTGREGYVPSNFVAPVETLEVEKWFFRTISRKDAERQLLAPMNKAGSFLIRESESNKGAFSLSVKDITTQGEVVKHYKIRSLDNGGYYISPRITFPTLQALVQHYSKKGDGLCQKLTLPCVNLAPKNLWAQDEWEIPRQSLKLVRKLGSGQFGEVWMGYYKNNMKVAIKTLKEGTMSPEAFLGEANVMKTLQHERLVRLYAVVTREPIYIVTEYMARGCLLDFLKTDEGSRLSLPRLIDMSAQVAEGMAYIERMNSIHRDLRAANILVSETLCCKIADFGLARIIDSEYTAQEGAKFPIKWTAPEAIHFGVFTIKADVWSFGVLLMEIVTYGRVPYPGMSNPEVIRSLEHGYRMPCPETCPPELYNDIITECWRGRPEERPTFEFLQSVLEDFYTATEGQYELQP
Procedure: as §1

ACK1(h) = ACK1(h) (Homo sapiens, UniProt Q07912)
Chain of ACK1(h) (Q07912 whole entry): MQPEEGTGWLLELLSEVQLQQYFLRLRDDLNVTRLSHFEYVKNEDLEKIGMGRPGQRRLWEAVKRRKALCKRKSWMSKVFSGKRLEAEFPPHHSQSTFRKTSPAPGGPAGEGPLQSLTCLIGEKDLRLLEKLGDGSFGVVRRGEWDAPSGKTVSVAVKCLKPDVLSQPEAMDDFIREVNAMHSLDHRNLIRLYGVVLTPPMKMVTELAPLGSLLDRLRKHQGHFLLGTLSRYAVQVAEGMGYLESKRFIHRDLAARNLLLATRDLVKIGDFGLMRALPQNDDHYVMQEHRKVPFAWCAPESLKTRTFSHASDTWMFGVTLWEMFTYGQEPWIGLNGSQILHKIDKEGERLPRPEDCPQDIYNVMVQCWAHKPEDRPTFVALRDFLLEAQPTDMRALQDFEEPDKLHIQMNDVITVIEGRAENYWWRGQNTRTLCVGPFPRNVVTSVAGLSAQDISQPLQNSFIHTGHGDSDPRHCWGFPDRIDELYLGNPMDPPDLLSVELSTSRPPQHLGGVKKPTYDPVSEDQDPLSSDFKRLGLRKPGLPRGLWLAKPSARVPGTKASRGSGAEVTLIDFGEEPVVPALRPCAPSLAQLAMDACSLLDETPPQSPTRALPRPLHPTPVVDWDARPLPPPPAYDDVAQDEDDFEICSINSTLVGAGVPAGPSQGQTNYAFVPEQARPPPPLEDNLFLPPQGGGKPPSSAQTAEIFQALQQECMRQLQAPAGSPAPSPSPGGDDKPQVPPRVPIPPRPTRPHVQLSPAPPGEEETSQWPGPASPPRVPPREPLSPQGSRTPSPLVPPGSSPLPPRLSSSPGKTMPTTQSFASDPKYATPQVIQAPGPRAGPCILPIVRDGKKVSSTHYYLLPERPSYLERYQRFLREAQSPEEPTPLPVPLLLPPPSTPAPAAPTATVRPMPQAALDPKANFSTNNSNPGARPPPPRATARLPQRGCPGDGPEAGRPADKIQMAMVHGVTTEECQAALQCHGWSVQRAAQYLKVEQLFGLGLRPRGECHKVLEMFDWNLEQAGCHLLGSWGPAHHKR
Procedure: as §1

IR(h) = IR(h) (Homo sapiens, UniProt P06213)
Procedure: as §1

EGFR(T790M,L858R)(h) = molecular target: T8, EGFR(T790M,L858R)(h) (Homo sapiens, UniProt P00533, L858R/T790M)
T8 construct: purchased Millipore (KinaseProfiler service)
Procedure: as §1

LIMK1(h) = LIMK1(h) (Homo sapiens, UniProt P53667)
Procedure: as §1

IRR(h) = IRR(h) (Homo sapiens, UniProt P14616)
Procedure: as §1

ARK5(h) = ARK5(h) (Homo sapiens, UniProt O60285)
Procedure: as §1

F1t4(h) = F1t4(h) (Homo sapiens, UniProt P35916)
Procedure: as §1

DYRK2(h) = molecular target: T9, DYRK2(h) (Homo sapiens, UniProt Q92630)
T9 construct: purchased Millipore (KinaseProfiler service)
Procedure: as §1

MELK(h) = molecular target: T10, MELK(h) (Homo sapiens, UniProt Q14680)
T10 construct: purchased Millipore (KinaseProfiler service)
Procedure: as §1

Ab1(T3151)(h) = Ab1(T3151)(h) (Homo sapiens, UniProt P00519, T315I)
Procedure: as §1

AMPKα1(h) = AMPKα1(h) (Homo sapiens, UniProt Q13131)
Procedure: as §1

Met(h) = molecular target: T11, Met(h) (Homo sapiens, UniProt P08581)
T11 construct: purchased Millipore (KinaseProfiler service)
Procedure: as §1

PKC ? (h) = PKC ? (h) (Homo sapiens, UniProt Q02156)
Procedure: as §1

EphA1(h) = molecular target: T12, EphA1(h) (Homo sapiens, UniProt P21709)
T12 construct: purchased Millipore (KinaseProfiler service)
Procedure: as §1

Rse(h) = molecular target: T13, Rse(h) (Homo sapiens, UniProt Q06418)
T13 construct: purchased Millipore (KinaseProfiler service)
T13 sequence (Q06418 41-890): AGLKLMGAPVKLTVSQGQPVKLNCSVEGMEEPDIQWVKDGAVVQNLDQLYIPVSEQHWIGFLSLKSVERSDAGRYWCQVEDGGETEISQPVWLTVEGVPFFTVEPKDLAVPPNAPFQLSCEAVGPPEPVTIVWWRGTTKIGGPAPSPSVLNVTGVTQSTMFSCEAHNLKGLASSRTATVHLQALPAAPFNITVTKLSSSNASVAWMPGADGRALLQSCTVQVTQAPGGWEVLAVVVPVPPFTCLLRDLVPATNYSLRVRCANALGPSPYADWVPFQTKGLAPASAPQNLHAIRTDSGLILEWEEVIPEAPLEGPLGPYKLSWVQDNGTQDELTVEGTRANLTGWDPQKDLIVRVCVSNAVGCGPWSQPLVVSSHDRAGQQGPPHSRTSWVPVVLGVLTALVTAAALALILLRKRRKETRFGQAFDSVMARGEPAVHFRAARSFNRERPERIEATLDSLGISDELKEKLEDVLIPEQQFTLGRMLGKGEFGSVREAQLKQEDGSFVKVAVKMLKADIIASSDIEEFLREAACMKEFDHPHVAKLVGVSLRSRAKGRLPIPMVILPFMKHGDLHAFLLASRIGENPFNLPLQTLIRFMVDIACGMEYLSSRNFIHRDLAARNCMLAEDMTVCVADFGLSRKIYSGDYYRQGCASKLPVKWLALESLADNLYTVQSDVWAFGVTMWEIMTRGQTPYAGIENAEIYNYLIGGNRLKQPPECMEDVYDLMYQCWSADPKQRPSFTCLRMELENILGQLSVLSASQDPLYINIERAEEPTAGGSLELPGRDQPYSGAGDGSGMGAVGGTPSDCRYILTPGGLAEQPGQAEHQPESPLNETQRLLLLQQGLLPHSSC
Procedure: as §1

MAPK2(h) = MAPK2(h) (Homo sapiens, UniProt P28482)
Procedure: as §1

MEK1(h) = molecular target: T14, MEK1(h) (Homo sapiens, UniProt Q02750)
T14 construct: purchased Millipore (KinaseProfiler service)
Procedure: as §1

eEF-2K(h) = molecular target: T15, eEF-2K(h) (Homo sapiens, UniProt O00418)
T15 construct: purchased Millipore (KinaseProfiler service)
Procedure: as §1

CDK9/cyclin T1(h) = CDK9/cyclin T1(h) (Homo sapiens, UniProt P50750)
Procedure: as §1

CDK6/cyclinD3(h) = CDK6/cyclinD3(h) (Homo sapiens, UniProt Q00534)
Procedure: as §1

BTK(R28H)(h) = BTK(R28H)(h) (Homo sapiens, UniProt Q06187, R28H)
Procedure: as §1

PrKX(h) = molecular target: T16, PrKX(h) (Homo sapiens, UniProt P51817)
T16 construct: purchased Millipore (KinaseProfiler service)
Procedure: as §1

PKA(h) = PKA(h) (Homo sapiens, UniProt P17612)
Procedure: as §1

T1 sequence (Q02763 23-1124 Y897S): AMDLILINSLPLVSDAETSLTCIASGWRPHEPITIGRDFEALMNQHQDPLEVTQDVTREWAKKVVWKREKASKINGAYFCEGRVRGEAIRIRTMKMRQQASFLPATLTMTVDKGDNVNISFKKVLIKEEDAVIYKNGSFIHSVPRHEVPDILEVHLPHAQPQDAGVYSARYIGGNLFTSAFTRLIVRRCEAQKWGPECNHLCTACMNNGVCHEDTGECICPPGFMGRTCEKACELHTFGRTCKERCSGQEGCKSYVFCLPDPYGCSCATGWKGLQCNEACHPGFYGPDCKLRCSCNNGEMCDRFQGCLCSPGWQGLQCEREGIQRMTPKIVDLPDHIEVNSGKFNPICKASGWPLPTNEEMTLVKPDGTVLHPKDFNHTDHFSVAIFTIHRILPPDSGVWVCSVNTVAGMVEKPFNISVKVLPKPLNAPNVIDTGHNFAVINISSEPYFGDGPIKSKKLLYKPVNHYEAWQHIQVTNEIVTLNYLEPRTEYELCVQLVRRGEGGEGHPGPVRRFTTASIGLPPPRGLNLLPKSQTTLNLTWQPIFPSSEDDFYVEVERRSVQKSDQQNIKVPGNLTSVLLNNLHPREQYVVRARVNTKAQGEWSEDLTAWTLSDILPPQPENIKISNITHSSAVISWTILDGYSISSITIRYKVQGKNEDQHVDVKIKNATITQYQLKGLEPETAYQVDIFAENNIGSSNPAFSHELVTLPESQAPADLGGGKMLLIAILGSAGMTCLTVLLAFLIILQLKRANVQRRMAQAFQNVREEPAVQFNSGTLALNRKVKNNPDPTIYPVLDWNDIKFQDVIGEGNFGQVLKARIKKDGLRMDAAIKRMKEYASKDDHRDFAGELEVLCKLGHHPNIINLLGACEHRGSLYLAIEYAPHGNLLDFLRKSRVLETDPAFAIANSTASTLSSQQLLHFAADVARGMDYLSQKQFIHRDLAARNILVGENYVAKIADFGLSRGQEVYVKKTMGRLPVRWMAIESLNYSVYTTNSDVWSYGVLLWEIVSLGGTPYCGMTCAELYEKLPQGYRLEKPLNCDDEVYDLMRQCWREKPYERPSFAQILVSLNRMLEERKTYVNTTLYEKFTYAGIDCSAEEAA

SMILES: Cc1cc2c(F)c(Oc3nc(Nc4cc(C5CC5)[nH]n4)cc(N4CCN(C)CC4)n3)cc(F)c2[nH]1 [NTW-3475]
- Activity % (Tie2(Y897S)(h)): 3%
- Activity % (TAK1(h)): 65%
- Activity % (MRCKα(h)): 102%
- Activity % (KDR(h)): 14%
- Activity % (SAPK2a(T106M)(h)): 95%
- Activity % (Hck(h) activated): 12%
- Activity % (Syk(h)): 84%
- Activity % (IKKβ(h)): 109%
- Activity % (AMPKα2(h)): 5%
- Activity % (NEK6(h)): 90%
- Activity % (TGFBR1(h)): 44%
- Activity % (HIPK3(h)): 88%
- Activity % (Ret(V804L)(h)): −4%
- Activity % (PKCβ1(h)): 92%
- Activity % (IGF-1R(h)): 5%
- Activity % (B1k(m)): 14%
- Activity % (ACK1(h)): 4%
- Activity % (IR(h)): 30%
- Activity % (EGFR(T790M,L858R)(h)): 17%
- Activity % (LIMK1(h)): 15%
- Activity % (IRR(h)): 6%
- Activity % (ARK5(h)): 2%
- Activity % (F1t4(h)): 0%
- Activity % (DYRK2(h)): 96%
- Activity % (MELK(h)): 40%
- Activity % (Ab1(T3151)(h)): −2%
- Activity % (AMPKα1(h)): 17%
- Activity % (Met(h)): 11%
- Activity % (PKC ? (h)): 99%
- Activity % (EphA1(h)): 12%
- Activity % (Rse(h)): 55%
- Activity % (MAPK2(h)): 105%
- Activity % (MEK1(h)): 63%
- Activity % (eEF-2K(h)): 86%
- Activity % (CDK9/cyclin T1(h)): 52%
- Activity % (CDK6/cyclinD3(h)): 65%
- Activity % (BTK(R28H)(h)): 103%
- Activity % (PrKX(h)): 68%
- Activity % (PKA(h)): 111%
